Source: patent US9944618B2, “Inhibiting neurotransmitter reuptake” (Mayo Foundation for Medical Education and Research, priority 2013, dated 2018)

Columns and labels:
[1] = biological target: hERG (Homo sapiens (Human), UniProt Q12809); test: Human ERG (hERG) assay, hERG currents in hERG-expressing CHO cells; type: cell-based; conditions: hERG-expressing CHO cells
From the text: The voltage-dependent potassium channel encoded by the human ether-a-go-go-related gene (hERG) is believed to play a key role in repolarisation of the ventricular cardiac action potential. Changes in its activity, caused either by inherited mutations of the gene sequence or pharmacological modification, can lead to prolongation of action potential duration. This can lead to prolongation of the QT interval recorded in man on an electrocardiogram and to a potentially fatal cardiac arrhythmia known as Torsades de Pointes.
hERG currents were recorded from hERG-expressing CHO cells. The biophysical and pharmacological characterization of the hERG currents in these cells was performed.

[2] = biological target: CYP2D6 (Homo sapiens (Human), UniProt P10635); test: Cytochrome P450 inhibition assay, recombinant CYP2D6 (MAMC substrate); type: in vitro ADME; conditions: recombinant enzyme
[3] = biological target: human serotonin transporter (Homo sapiens (Human), UniProt P31645); test: Human SERT (serotonin transporter) uptake assay; type: cell-based; conditions: read-out: hSERT Ki
Procedure, shortened: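 HEK293F cells transfected with human SERT, about 60,000 per well, settled for ≥3 h at 37° C before compound addition. Uptake was followed with a fluorescent transporter dye in HBSS with 0.02 M HEPES. Background came from 10 μM fluoxetine, nomifensine was the control, n=3.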

[4] = biological target: CYP3A4 (Homo sapiens (Human), UniProt P08684); test: Cytochrome P450 inhibition assay, recombinant CYP3A4 (BFC substrate); type: in vitro ADME; conditions: recombinant enzyme
[5] = biological target: human dopamine transporter (Homo sapiens (Human), UniProt Q01959); test: Human DAT (dopamine transporter) uptake assay; type: cell-based; conditions: read-out: hDAT Ki
Procedure, shortened: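 Uptake inhibition was measured in HEK293F cells transfected with human DAT, plated at ~60,000 cells/well and settled ≥3 h at 37 °C. Compounds came from 10 mM DMSO stocks. Read-out was uptake of a fluorescent neurotransmitter transporter dye in HBSS with 0.02 M HEPES, with dye level given as % of vendor reconstitution; n=3.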

[6] = biological target: human norepinephrine transporter (Homo sapiens (Human), UniProt P23975); test: Human NET (norepinephrine transporter) uptake assay; type: cell-based; conditions: read-out: hNET Ki
Procedure, shortened: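 HEK293F cells transfected with human NET were thawed, plated at about 60,000 cells/well and held at 37 °C for at least 3 h. Compounds came from 10 mM DMSO stocks, with nomifensine as control, in 1×HBSS/0.02 M HEPES. Uptake was followed with a neurotransmitter transporter dye, dosed as % of vendor reconstitution, in triplicate.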

[7] = pKa of basic centres (Table 1); type: physicochemical; conditions: first base, e.g., an aliphatic primary, secondary, or tertiary amine; read-out: pKa (Base 1)

Sequence of hERG (Q12809 whole entry): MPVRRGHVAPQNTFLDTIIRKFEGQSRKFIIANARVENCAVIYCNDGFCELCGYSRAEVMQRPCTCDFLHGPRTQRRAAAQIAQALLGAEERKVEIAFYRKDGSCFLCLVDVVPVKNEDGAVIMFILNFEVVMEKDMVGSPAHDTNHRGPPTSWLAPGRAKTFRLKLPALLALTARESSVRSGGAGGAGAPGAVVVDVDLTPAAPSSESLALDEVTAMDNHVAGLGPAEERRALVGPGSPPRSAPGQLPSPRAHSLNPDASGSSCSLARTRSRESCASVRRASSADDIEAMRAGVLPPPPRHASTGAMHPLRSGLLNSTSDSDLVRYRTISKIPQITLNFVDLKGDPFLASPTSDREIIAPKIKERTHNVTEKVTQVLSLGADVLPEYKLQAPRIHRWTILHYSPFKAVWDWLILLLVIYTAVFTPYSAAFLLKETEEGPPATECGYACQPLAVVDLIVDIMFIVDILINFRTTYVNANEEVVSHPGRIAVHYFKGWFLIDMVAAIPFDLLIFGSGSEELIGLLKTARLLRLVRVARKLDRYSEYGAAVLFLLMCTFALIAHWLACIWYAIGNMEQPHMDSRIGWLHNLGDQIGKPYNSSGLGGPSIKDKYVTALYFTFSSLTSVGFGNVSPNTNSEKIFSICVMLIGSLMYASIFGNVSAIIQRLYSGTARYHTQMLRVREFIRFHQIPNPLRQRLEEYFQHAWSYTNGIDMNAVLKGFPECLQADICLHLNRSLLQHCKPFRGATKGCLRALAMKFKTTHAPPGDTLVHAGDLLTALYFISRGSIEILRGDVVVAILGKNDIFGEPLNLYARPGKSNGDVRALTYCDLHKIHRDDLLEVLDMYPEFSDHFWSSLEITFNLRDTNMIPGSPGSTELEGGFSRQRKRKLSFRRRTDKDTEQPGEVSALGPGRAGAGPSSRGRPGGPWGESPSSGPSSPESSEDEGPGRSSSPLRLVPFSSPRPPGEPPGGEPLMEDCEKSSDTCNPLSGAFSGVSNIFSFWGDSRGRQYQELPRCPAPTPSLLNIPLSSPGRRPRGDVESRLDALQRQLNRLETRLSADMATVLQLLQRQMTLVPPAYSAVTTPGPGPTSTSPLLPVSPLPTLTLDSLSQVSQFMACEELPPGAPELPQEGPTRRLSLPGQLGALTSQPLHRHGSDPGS
Sequence of human norepinephrine transporter (P23975 whole entry): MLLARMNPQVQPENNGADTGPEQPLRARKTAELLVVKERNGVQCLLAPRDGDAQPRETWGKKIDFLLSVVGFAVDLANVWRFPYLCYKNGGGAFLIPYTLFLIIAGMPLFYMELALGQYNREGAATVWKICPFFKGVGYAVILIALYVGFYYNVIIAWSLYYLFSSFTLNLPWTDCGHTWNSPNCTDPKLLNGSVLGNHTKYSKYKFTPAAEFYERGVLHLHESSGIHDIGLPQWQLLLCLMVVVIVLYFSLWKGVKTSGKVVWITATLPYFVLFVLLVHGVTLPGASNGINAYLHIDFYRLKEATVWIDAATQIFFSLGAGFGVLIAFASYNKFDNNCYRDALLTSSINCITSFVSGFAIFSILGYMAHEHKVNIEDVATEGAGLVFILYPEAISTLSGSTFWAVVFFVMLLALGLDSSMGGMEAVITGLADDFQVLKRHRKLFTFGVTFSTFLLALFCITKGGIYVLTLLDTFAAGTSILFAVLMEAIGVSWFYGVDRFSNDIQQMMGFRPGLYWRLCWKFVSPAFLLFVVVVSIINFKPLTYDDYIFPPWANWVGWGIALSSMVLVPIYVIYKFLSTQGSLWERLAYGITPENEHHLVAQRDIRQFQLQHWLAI
Sequence of CYP2D6 (P10635 whole entry): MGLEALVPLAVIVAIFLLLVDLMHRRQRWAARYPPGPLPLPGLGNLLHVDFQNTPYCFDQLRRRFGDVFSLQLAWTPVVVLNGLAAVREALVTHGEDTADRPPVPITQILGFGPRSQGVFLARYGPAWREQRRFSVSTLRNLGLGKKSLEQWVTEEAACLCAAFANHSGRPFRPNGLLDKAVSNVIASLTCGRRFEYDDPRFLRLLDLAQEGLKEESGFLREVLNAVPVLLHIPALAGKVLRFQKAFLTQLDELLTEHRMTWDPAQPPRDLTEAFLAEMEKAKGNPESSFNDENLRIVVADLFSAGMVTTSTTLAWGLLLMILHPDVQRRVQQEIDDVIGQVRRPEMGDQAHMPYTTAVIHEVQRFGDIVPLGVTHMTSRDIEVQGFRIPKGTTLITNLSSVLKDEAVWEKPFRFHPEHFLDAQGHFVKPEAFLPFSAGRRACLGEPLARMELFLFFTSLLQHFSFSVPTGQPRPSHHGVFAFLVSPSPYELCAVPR
Sequence of human dopamine transporter (Q01959 whole entry): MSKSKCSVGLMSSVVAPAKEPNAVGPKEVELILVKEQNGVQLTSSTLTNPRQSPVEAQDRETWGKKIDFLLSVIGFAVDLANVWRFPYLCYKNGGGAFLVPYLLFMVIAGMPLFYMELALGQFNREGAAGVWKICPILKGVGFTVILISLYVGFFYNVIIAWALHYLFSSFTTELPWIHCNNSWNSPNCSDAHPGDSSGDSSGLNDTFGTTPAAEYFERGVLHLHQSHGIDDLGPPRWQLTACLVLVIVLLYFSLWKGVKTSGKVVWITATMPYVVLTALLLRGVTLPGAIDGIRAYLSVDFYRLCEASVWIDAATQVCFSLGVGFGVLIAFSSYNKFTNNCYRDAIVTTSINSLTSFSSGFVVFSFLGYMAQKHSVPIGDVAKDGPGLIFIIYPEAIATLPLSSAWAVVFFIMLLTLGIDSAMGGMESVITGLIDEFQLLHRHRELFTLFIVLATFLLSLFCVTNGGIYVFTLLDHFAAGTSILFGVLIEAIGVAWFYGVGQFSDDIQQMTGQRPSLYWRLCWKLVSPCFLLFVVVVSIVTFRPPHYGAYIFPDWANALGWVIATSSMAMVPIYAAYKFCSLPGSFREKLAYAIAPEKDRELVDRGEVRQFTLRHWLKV
Sequence of CYP3A4 (P08684 whole entry): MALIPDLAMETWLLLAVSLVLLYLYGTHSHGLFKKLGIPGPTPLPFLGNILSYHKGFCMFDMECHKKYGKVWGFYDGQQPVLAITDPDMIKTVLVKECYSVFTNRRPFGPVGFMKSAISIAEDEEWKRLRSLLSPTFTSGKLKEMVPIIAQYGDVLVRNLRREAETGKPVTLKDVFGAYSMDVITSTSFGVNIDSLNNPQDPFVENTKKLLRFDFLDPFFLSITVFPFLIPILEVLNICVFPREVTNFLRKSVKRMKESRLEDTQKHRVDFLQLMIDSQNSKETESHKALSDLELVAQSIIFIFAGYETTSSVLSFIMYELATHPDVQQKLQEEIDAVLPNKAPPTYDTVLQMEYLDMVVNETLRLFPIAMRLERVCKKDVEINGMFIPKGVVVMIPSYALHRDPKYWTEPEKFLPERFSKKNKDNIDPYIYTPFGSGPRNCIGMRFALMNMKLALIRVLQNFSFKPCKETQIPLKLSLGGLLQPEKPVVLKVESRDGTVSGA
Sequence of human serotonin transporter (P31645 whole entry): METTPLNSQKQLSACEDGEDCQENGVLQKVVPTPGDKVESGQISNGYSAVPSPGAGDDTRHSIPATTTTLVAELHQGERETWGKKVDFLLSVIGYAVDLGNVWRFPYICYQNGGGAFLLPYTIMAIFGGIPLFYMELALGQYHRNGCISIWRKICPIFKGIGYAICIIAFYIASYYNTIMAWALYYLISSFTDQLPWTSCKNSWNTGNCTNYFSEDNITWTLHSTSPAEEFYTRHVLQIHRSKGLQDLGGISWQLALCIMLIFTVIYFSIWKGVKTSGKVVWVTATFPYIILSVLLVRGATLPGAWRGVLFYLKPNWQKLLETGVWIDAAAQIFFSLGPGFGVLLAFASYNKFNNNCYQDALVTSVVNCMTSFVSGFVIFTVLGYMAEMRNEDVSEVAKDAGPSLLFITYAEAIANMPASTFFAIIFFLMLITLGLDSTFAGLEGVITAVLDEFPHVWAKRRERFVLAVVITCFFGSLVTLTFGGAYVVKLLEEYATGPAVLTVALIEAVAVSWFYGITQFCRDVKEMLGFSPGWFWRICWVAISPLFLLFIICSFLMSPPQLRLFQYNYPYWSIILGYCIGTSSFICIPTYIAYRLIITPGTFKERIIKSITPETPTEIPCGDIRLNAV

Row | IC50 [2] [nM] | Ki [3] [nM] | IC50 [4] [nM] | Ki [5] [nM] | Ki [6] [nM] | pKa [7] | SMILES | IC50 [1] [nM]
1 | 1300 | 0.6 | 20000 | 5.2 | 1.3 | 9.6 | CNC[C@H](c1ccc2ccccc2c1)[C@H](OCC(N)=O)c1ccccc1 [Compound 3] | 33000
2 | 240 | 2.8 | 18000 | 10.1 | 1.4 | 10.1 | CNC[C@@H](Cc1ccccc1)c1ccc2ccccc2c1 [Compound 5] | 6500
3 | 120 | 11.7 | 20000 | 7.3 | 1.5 | 9.4 | CNC[C@H](c1ccc(Cl)c(Cl)c1)[C@H](O)c1ccccc1 [Compound 10] | 9100
4 | 400 | 5.4 | 17000 | 19.7 | 1.6 | 9.6 | CNC[C@H](c1ccc2ccccc2c1)[C@H](OCC(=O)NC1CC1)c1ccccc1 [Compound 13] | 19000
5 | 3700 | 3.1 | 20000 | 79.3 | 1.6 | 9.6 | CNC[C@H](c1ccc2ccccc2c1)[C@H](OCC(=O)NCCO)c1ccccc1 [Compound 14] | 33000
6 | 200 | 2.4 | 20000 | 42.5 | 1.7 | 9.7 | CNC[C@H](c1ccc2ccccc2c1)[C@H](O)c1ccccc1F [Compound 15] | 12000
7 | 20000 | 4.3 | 20000 | 17 | 1.9 | 9.6 | CNC[C@H](c1ccc2ccccc2c1)[C@H](OCC(=O)N1CC[C@H](O)C1)c1ccccc1 [Compound 19] | 33000
8 | 180 | 2.1 | 15000 | 56.7 | 2 | 9.6 | CNC[C@H](c1ccc2ccccc2c1)[C@H](OCc1noc(C)n1)c1ccccc1 [Compound 22] | 15000
9 | 4900 | 5.6 | 20000 | 65.6 | 2 | 9.6 | CNC[C@H](c1ccc2ccccc2c1)[C@H](OCC(=O)N1CCOCC1)c1ccccc1 [Compound 23] | 21000
10 | 27 | 1.6 | 20000 | 53.5 | 2.2 | 9.6 | CNC[C@H](c1ccc2ccccc2c1)[C@H](O)c1ccc(Cl)nc1 [Compound 26] | 7500
11 | 160 | 3.4 | 9600 | 43.8 | 2.4 | 9.7 | CNC[C@H](c1ccc2ccccc2c1)[C@H](O)c1ccccc1C [Compound 28] | 15000

Row | SMILES | IC50 [2] [nM] | Ki [3] [nM] | IC50 [4] [nM] | Ki [5] [nM] | Ki [6] [nM] | pKa [7] | IC50 [1] [nM]
12 | CNC[C@H](c1ccc2ccccc2c1)[C@H](F)c1ccccc1 [Compound 9] | 210 | 5.7 | 8600 | 42.3 | 1.5 | 9.4 | 9500
13 | CNC[C@H](c1ccc2ccccc2c1)[C@@H](F)c1ccccc1 [Compound 11] | 96 | 4.2 | 6700 | 11.1 | 1.6 | 9.4 | 11000
14 | CNCC(c1ccc(Br)c(Cl)c1)[C@H](O)c1ccccc1 (stereo partly drawn) [Compound 16] | 230 | 6.3 | 19000 | 6.6 | 1.8 | 9.4 | 5000
15 | CNC[C@H](c1ccc(Br)c(Cl)c1)[C@@H](O)c1ccccc1 [Compound 21] | 470 | 66.4 | 20000 | 32.4 | 2 | 9.4 | 23000
